Results reported in patent publication US20250144107A1, “USE OF A PIKFYVE INHIBITOR IN COMBINATION WITH IMMUNOTHERAPY” (The Regents of the University of Michigan, priority 2023, published 2025).

How the values were obtained:
[1] = tested on: subcutaneous tumors derived from OVA-expressing B16-F10 cells; assay: Adoptive cell therapy in subcutaneous B16-F10-OVA tumor model; assay type: in vivo, mice; conditions: combination with ACT
Excerpt: FIG. 10A is an experimental timeline of the efficacy against subcutaneous ovalbumin-expressing B16-F10 (B16-F10-OVA) tumors treated with adoptive cell therapy (ACT) in combination with apilimod or ESK981.
FIG. 10B is a series of 6 line graphs showing the growth of subcutaneous ovalbumin-expressing B16-F10 (B16-F10-OVA) tumors treated with adoptive cell therapy (ACT) in combination with apilimod or ESK981.
FIG. 10C is a line graph of the survival of mice with subcutaneous ovalbumin-expressing B16-F10 (B16-F10-OVA) tumors treated with adoptive cell therapy (ACT) in combination with apilimod or ESK981.
(§1) All experimental protocols were conducted after approval by the U-M Institutional Animal Care & Use Committee. […] KPC1361 cells were resuspended in PBS, 1:1 (v/v) mixed with Matrigel (BD Biosciences; catalog #: 354248), and orthotopically injected to the pancreases at 250,000 cells in a total volume of 50 μl per injection. B16-F10 cells were resuspended in PBS and injected subcutaneously to both flanks at 400,000 cells per injection. For ACT study, B16-F10-OVA cells were resuspended in PBS and injected subcutaneously to both flanks at 300,000 cells per injection. For lung metastasis experiment, B16-BL6 cells were resuspended in PBS, 1:1 (v/v) mixed with Matrigel and injected subcutaneously to both flanks at 400,000 cells per injection. Fifteen days after tumor cell inoculation, the primary tumors were removed surgically under anesthesia. Thirty-five days after removal of the primary tumors, lung tissues were extracted and fixed, and lung metastasis was quantified. C57BL/6 mice were acquired from The Jackson Laboratory. Measurement of tumor volume began 5-9 days post tumor cell implantation and was performed 2-3 times per week using calipers. Volume measurements of pancreatic tumors were also achieved with calipers, as reported See, e.g., Koikawa, K. et al., Cell 2021; 184(18):4753-4771. In brief, mice were subjected to anesthesia with 2-3% isoflurane, and the abdominal wall then became soft and loose. The mouse was next held with the left hand allowing for the palpation and assessment of the firm pancreatic tumor mass with the right hand. […] Volume (mm^3) of tumor was calculated using (W^2×L)/2, where W stood for minor tumor axis and L for the major. All mice were maintained in a pathogen-free condition, with a 12-hour light/dark cycle.
(§2) For ICB treatment in KPC1361 pancreatic tumor-bearing mice, randomization was performed when tumors reached approximately 100 mm^3. For ACT and vaccine experiments, the mice were randomized when tumors reached approximately 35 mm^3. Anti-mouse PD-1 (clone RMP1-14) and its isotype control were purchased from BioXcell, administered intraperitoneally at 250 μg per mouse, biweekly. […]

B16-BL6 melanoma model = assay: B16-BL6 lung metastasis model after removal of primary tumors; assay type: in vivo, mice; conditions: for efficacy of ICB to inhibit metastasis: combination with ICB (anti-PD-1 plus anti-CTLA-4); for lung metastasis: treatment alone
Procedure: FIG. 8A (Left) is a box plot of tumor volume of the efficacy of immune checkpoint inhibitors in combination with apilimod or ESK981 treatment against metastasis in a subcutaneous B16BL6 tumor; (Middle) is a series of 12 images of the efficacy of immune checkpoint inhibitors in combination with apilimod or ESK981 treatment against metastasis in a subcutaneous B16BL6 tumor; (Right) is a box plot of the counts of lung tumor metastasis treated with immune checkpoint inhibitors in combination with apilimod or ESK981.
as §1, §2

KPC1361 cells = assay: Immunocytochemistry of MHC-I localization and vacuoles; assay type: cell-based, mouse; conditions: IFN-γ stimulated KPC1361 cells, vs DMSO
Procedure: FIG. 1D is a series of 6 images showing MHC-I localization in IFN-γ stimulated KPC1361 cells treated with DMSO, Apilimod, or ESK981.
Cancer cells were seeded on cover glasses coated with 0.01% poly-L-Lysine (Sigma-Aldrich; catalog #: A-005-C). The cells were then treated with DMSO, apilimod, or ESK981, and stimulated with 10 ng/ml mouse recombinant IFN-γ (R&D Systems; catalog #: 485-MI) for 24 hours, followed by fixation with 2% paraformaldehyde in PBS and one washing with PBS. The cells were then permeabilized with 0.25% Triton X-100 in PBS, washed with PBS three times, and blocked with 5% goat serum in PBS for one hour at room temperature. After blocking, the cells were incubated with the MHC-I antibody (ER-HR52; Novus Biologicals; catalog #: NB100-64952) at 4° C. overnight, followed by PBS wash for three times and incubation of secondary antibody, Alexa Fluor 488 goat anti-rat IgG antibody (Jackson Immunoresearch; #112-545-167) at room temperature for one hour. After further washing with PBS three times, the cells were stained with DAPI and mounted on slides for imaging.

| SMILES | efficacy of the ACT [1] | survival of the animals [1] | efficacy of ICB to inhibit metastasis (B16-BL6 melanoma model) | lung metastasis (B16-BL6 melanoma model) | cell surface expression of MHC-I (KPC1361 cells) |
| --- | --- | --- | --- | --- | --- |
| CC(C)Cn1c2ccc(Nc3ncccn3)cc2c2c3c(c4c(c21)CCc1nn(C)cc1-4)C(=O)NC3 [ESK981, 13-isobutyl-4-methyl-10-(pyrimidin-2-ylamino)-1,2,4,7,8,13-hexahydro-6H-indazolo[5,4-a]pyrrolo[3,4-c]carbazol-6-one] | strikingly enhanced | significantly extending survival | strongly enhanced | reduction of lung metastasis | increased |
| Cc1cccc(/C=N/Nc2cc(N3CCOCC3)nc(OCCc3ccccn3)n2)c1 [apilimod, N-[(E)-(3-methylphenyl)methylideneamino]-6-morpholin-4-yl-2-(2-pyridin-2-ylethoxy)pyrimidin-4-amine] | strikingly enhanced | significantly extending survival | strongly enhanced | reduction of lung metastasis | increased |
